Results as given in patent US12247015B2, “3-amino-4H-benzo[e][1,2,4]thiadiazine 1,1-dioxide derivatives as inhibitors of MRGX2” (Solent Therapeutics, LLC, priority 2019, dated 2025).

Each compound was assayed against hMRGX2 (CHO-K1 cells overexpressing MRGX2) (Homo sapiens (Human), UniProt Q96LB1) (assay: In vitro inhibition (EC50) of intracellular calcium flux, FLIPR Tetra, substance P stimulation). Conditions: stimulated with MRGX2 ligand substance P, FLIPR Calcium 5, read-out: hMRGX2 Cellular Potency (pEC50) (converted).
Chain of hMRGX2 (CHO-K1 cells overexpressing MRGX2) (Q96LB1 whole entry): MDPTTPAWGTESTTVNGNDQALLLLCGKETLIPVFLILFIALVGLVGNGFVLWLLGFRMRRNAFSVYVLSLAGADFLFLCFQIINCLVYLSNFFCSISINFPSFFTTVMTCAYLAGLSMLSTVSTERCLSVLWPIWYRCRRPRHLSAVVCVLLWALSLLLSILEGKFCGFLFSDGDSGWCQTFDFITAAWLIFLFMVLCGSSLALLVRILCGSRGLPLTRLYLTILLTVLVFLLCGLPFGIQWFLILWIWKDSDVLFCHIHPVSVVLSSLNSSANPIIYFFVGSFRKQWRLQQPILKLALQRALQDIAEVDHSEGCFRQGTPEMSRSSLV
Assay type: cell-based
Outline: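 CHO-K1 cells overexpressing human MRGX2, loaded with Calcium 5 dye for 30 min at 37 °C, then given compound (11-point, top 10 μM).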

Going from `O=S1(=O)N=C(Nc2ccccc2)Nc2c(C3CC3)cccc21` [Example 121, 5-cyclopropyl-3-(phenylamino)-4H-benzo[e][1,2,4]thiadiazine 1,1-dioxide] to `O=S1(=O)N=C(NCC2CC2)Nc2c(-c3cc(F)ccc3F)cccc21` [Example 140, 3-((cyclopropylmethyl)amino)-5-(2,5-difluorophenyl)-4H-benzo[e][1,2,4]thiadiazine 1,1-dioxide], the EC50 rises from 431 nM to 692 nM (1.6-fold).

Compared with `COc1cccnc1CNC1=NS(=O)(=O)c2cccc(-c3cccc(F)c3Cl)c2N1` [Example 122, 5-(2-chloro-3-fluorophenyl)-3-(((3-methoxypyridin-2-yl)methyl)amino)-4H-benzo[e][1,2,4]thiadiazine 1,1-dioxide], `O=S1(=O)N=C(NCc2ccccn2)Nc2c(-c3cc(F)ccc3F)cccc21` [Example 139, 5-(2,5-difluorophenyl)-3-((pyridin-2-ylmethyl)amino)-4H-benzo[e][1,2,4]thiadiazine 1,1-dioxide] is 8.1-fold higher in EC50: 30.3 nM for the first, 246 nM for the second.

First: O=S1(=O)N=C(NCC2CCCO2)Nc2c(-c3cccc(F)c3Cl)cccc21 (stereo not drawn) [Example 123, 5-(2-chloro-3-fluorophenyl)-3-(((tetrahydrofuran-2-yl)methyl)amino)-4H-benzo[e][1,2,4]thiadiazine 1,1-dioxide]
Second: COCCNC1=NS(=O)(=O)c2cccc(-c3cccc(Cl)c3F)c2N1 [Example 135, 5-(3-chloro-2-fluorophenyl)-3-((2-methoxyethyl)amino)-4H-benzo[e][1,2,4]thiadiazine 1,1-dioxide]
The EC50 of the first is 14-fold lower: 60.8 nM for the first, 841 nM for the second.

Compared with `COCCNC1=NS(=O)(=O)c2cccc(-c3ccccc3C(F)(F)F)c2N1` [Example 124, 3-((2-methoxyethyl)amino)-5-(2-(trifluoromethyl)phenyl)-4H-benzo[e][1,2,4]thiadiazine 1,1-dioxide], `COCCNC1=NS(=O)(=O)c2cccc(-c3cccc(C(F)(F)F)c3Cl)c2N1` [Example 132, 5-(2-chloro-3-(trifluoromethyl)phenyl)-3-((2-methoxyethyl)amino)-4H-benzo[e][1,2,4]thiadiazine 1,1-dioxide] is 4.4-fold higher in EC50: 64.4 nM for the first, 281 nM for the second.

`N#Cc1c(F)cccc1-c1cccc2c1NC(NCc1nccs1)=NS2(=O)=O` [Example 126, 2-(1,1-dioxido-3-((thiazol-2-ylmethyl)amino)-4H-benzo[e][1,2,4]thiadiazin-5-yl)-6-fluorobenzonitrile] and `O=S1(=O)N=C(NCc2ccccn2)Nc2c(-c3cc(F)cc(F)c3F)cccc21` [Example 131, 3-((pyridin-2-ylmethyl)amino)-5-(2,3,5-trifluorophenyl)-4H-benzo[e][1,2,4]thiadiazine 1,1-dioxide] are within 1.5-fold of each other in EC50: 70 nM for the first, 88.5 nM for the second.

`COC(C)CNC1=NS(=O)(=O)c2cccc(-c3cc(F)cc(F)c3F)c2N1` (stereo not drawn) [Example 127, 3-((2-methoxypropyl)amino)-5-(2,3,5-trifluorophenyl)-4H-benzo[e][1,2,4]thiadiazine 1,1-dioxide] and `O=S1(=O)N=C(NCC2CCC2)Nc2c(-c3cc(F)cc(F)c3F)cccc21` [Example 130, 3-((cyclobutylmethyl)amino)-5-(2,3,5-trifluorophenyl)-4H-benzo[e][1,2,4]thiadiazine 1,1-dioxide] are within 1.5-fold of each other in EC50: 87.1 nM for the first, 87.9 nM for the second.

Compared with `COCCNC1=NS(=O)(=O)c2cccc(-c3ccc(F)cc3Cl)c2N1` [Example 133, 5-(2-chloro-4-fluorophenyl)-3-((2-methoxyethyl)amino)-4H-benzo[e][1,2,4]thiadiazine 1,1-dioxide], `COCCNC1=NS(=O)(=O)c2cccc(-c3cc(C(F)(F)F)ccc3Cl)c2N1` [Example 134, 5-(2-chloro-5-(trifluoromethyl)phenyl)-3-((2-methoxyethyl)amino)-4H-benzo[e][1,2,4]thiadiazine 1,1-dioxide] is 2.4-fold higher in EC50: 296 nM for the first, 723 nM for the second.

Work on `CNC1=NS(=O)(=O)c2ccc(F)c(-c3ccccc3Cl)c2N1` [Example 138, 5-(2-chlorophenyl)-6-fluoro-3-(methylamino)-4H-benzo[e][1,2,4]thiadiazine 1,1-dioxide] yielded an EC50 of 190 nM.
